Assay results reported in patent publication US12331041B2, “GLP-1 receptor agonists and uses thereof” (Pfizer Inc., priority 2018, dated 2025).
Counter-ions that a name gives are not always drawn.

Experiments:
human GLP-1R [1] = target: T1, human GLP-1R (Homo sapiens, UniProt P43220, G168S); experiment: CHO GLP-1R Clone H6 - Assay 1 (HTRF cAMP agonist assay); type: cell-based; conditions: for EC50: CHO Clone H6, high GLP-1R density, cAMP, geometric mean; for Emax: CHO Clone H6, relative to saturating full agonist GLP-1 7-36 (1 μM), arithmetic mean
T1 construct: expressed in transfected cells
T1 sequence (P43220 24-463 G168S): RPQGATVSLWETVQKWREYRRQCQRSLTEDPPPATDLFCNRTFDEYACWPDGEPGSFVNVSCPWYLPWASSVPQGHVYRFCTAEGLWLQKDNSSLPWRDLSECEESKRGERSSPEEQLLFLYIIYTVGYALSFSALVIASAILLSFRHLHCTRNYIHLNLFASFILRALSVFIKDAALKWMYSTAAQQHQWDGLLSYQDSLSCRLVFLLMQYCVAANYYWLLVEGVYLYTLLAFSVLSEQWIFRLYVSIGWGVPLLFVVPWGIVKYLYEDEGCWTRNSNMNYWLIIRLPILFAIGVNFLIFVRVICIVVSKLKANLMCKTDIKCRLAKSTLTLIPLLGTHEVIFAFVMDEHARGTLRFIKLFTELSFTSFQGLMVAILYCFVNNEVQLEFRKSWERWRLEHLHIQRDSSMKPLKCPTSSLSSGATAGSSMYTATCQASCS
Experimental: GLP-1R-mediated agonist activity was determined with a cell-based functional assay utilizing an HTRF (Homogeneous Time-Resolved Fluorescence) cAMP detection kit (cAMP HI Range Assay Kit; CisBio cat #62AM6PEJ) that measures cAMP levels in the cell. The method is a competitive immunoassay between native cAMP produced by the cells and exogenous cAMP labeled with the dye d2, The tracer binding is visualized by a mAb anti-cAMP labeled with Cryptate. The specific signal (i.e. energy transfer) is inversely proportional to the concentration of cAMP in either standard or experimental sample.
The human GLP-1R coding sequence (NCBI Reference Sequence NP_002053.3, including naturally-occurring variant Gly168Ser) was subcloned into pcDNA3 (Invitrogen) and a cell line stably expressing the receptor was isolated (designated Clone H6).
(§1) A 1 mL sample of the cell suspension in growth media was counted on a Becton Dickinson ViCell to determine cell viability and cell count per mL. The remaining cell suspension was then adjusted with growth media to deliver 2000 viable cells per well using a Matrix Combi Multidrop reagent dispenser, and the cells were dispensed into a white 384 well tissue culture treated assay plate (Corning 3570). The assay plate was then incubated for 48 hours at 37° C. in a humidified environment in 5% carbon dioxide.
Varying concentrations of each compound to be tested (in DMSO) were diluted in assay buffer (HBSS with Calcium/Magnesium (Lonza/BioWhittaker cat #10-527F)/0.1% BSA (Sigma Aldrich cat #A7409-1L)/20 mM HEPES (Lonza/BioWhittaker cat #17-737E) containing 100 μM 3-isobutyl-1-methylxanthin (IBMX; Sigma cat #15879). The final DMSO concentration is 1%.
After 48 hours, the growth media was removed from the assay plate wells, and the cells were treated with 20 μL of the serially diluted compound in assay buffer for 30 minutes at 37° C. in a humidified environment in 5% carbon dioxide. Following the 30 minute incubation, 10 μL of labeled d2 cAMP and 10 μL of anti-cAMP antibody (both diluted 1:20 in cell lysis buffer; as described in the manufacturer's assay protocol) were added to each well of the assay plate. The plates were then incubated at room temperature and after 60 minutes, changes in the HTRF signal were read with an Envision 2104 multi-label plate reader using excitation of 330 nm and emissions of 615 and 665 nm. Raw data were converted to nM cAMP by interpolation from a cAMP standard curve (as described in the manufacturer's assay protocol) and the percent effect was determined relative to a saturating concentration of the full agonist GLP-17-36 (1 μM) included on each plate. EC50 determinations were made from agonist dose-response curves analyzed with a curve fitting program using a 4-parameter logistic dose response equation.

human GLP-1R [2] = target: T2, human GLP-1R (Homo sapiens, UniProt P43220, L260F); experiment: CHO GLP-1R Clone C6 - Assay 2 (HTRF cAMP agonist assay); type: cell-based; conditions: for EC50: CHO clone C6, low GLP-1R density, cAMP, geometric mean; for Emax: CHO clone C6, relative to saturating full agonist GLP-1 (1 μM), arithmetic mean
T2 construct: expressed in transfected cells; host or cells: CHO Flp-In T-REx, clonal line C6 (pcDNA5-FRT-TO)
T2 sequence (P43220 24-463 L260F): as the sequence (P43220 24-463 G168S) above, with S145G, L237F counted along it
Experimental: GLP-1R-mediated agonist activity was determined with a cell-based functional assay utilizing an HTRF (Homogeneous Time-Resolved Fluorescence) cAMP detection kit (cAMP HI Range Assay Kit; Cis Bio cat #62AM6PEJ) that measures cAMP levels in the cell. The method is a competitive immunoassay between native cAMP produced by the cells and exogenous cAMP labeled with the dye d2. The tracer binding is visualized by a mAb anti-cAMP labeled with Cryptate. The specific signal (i.e. energy transfer) is inversely proportional to the concentration of cAMP in either a standard or an experimental sample.
The human GLP-1R coding sequence (NCBI Reference Sequence NP_002053.3, including naturally-occurring variant Leu260Phe) was subcloned into pcDNA5-FRT-TO and a clonal CHO cell line stably expressing a low receptor density was isolated using the Flp-In™ T-Rex™ System, as described by the manufacturer (ThermoFisher).
as §1, with “deliver 1600” for “deliver 2000”, “48 h” for “48 hours”, “environment (95% O2,” for “environment in”, “5% CO2)” for “5% carbon dioxide.”
Varying concentrations of each compound to be tested (in DMSO) were diluted in assay buffer [HBSS with Calcium/Magnesium (Lonza/BioWhittaker cat #10-527F)/0.1% BSA (Sigma Aldrich cat #A7409-1L)/20 mM HEPES (Lonza/BioWhittaker cat #17-737E)] containing 100 μM 3-isobutyl-1-methylxanthin (IBMX; Sigma cat #15879). The final DMSO concentration in the compound/assay buffer mixture is 1%.
After 48 h, the growth media was removed from the assay plate wells, and the cells were treated with 20 μL of the serially diluted compound in assay buffer for 30 min at 37° C. in a humidified environment (95% O2, 5% CO2). Following the 30 min incubation, 10 μL of labeled d2 cAMP and 10 μL of anti-cAMP antibody (both diluted 1:20 in cell lysis buffer; as described in the manufacturer's assay protocol) were added to each well of the assay plate. The plates were then incubated at room temperature and after 60 minutes, changes in the HTRF signal were read with an Envision 2104 multi-label plate reader using excitation of 330 nm and emissions of 615 and 665 nm. Raw data were converted to nM cAMP by interpolation from a cAMP standard curve (as described in the manufacturer's assay protocol) and the percent effect was determined relative to a saturating concentration of the full agonist GLP-1 (1 μM) included on each plate. EC50 determinations were made from agonist dose response curves analyzed with a curve fitting program using a 4-parameter logistic dose response equation.

EC50 (human GLP-1R [1])	Emax (human GLP-1R [1])	EC50 (human GLP-1R [2])	Emax (human GLP-1R [2])	SMILES
0.0032 µM	79%	0.038 µM	81%	O=C(O)c1ccc2nc(CN3CCC(c4cccnc4OCc4ccc(Cl)cc4F)CC3)n(Cc3ncco3)c2c1 [Example 2, 2-[(4-{2-[(4-chloro-2-fluorobenzyl)oxy]pyridin-3-yl}piperidin-1-yl)methyl]-1-(1,3-oxazol-2-ylmethyl)-1H-benzimidazole-6-carboxylic acid, trifluoroacetate salt]
0.00058 µM	79%	0.009 µM	88%	CCn1cncc1Cn1c(CN2CCC(c3cccnc3OCc3ccc(Cl)cc3F)CC2)nc2ccc(C(=O)O)cc21 [Example 3, 2-[(4-{2-[(4-chloro-2-fluorobenzyl)oxy]pyridin-3-yl}piperidin-1-yl)methyl]-1-[(1-ethyl-1H-imidazol-5-yl)methyl]-1H-benzimidazole-6-carboxylic acid, trifluoroacetate salt]
0.003 µM	77%	0.04 µM	98%	N#Cc1ccc(COc2ncccc2C2CCN(Cc3nc4ccc(C(=O)O)cc4n3Cc3ncco3)CC2)c(F)c1 [Example 4, 2-[(4-{2-[(4-cyano-2-fluorobenzyl)oxy]pyridin-3-yl}piperidin-1-yl)methyl]-1-(1,3-oxazol-2-ylmethyl)-1H-benzimidazole-6-carboxylic acid, trifluoroacetate salt]
0.0045 µM	68%	0.084 µM	83%	O=C(O)c1ccc2nc(CN3CCC(c4cccnc4OCc4ccc(Cl)cc4F)CC3)n(Cc3cnco3)c2c1 [Example 6, 2-[(4-{2-[(4-chloro-2-fluorobenzyl)oxy]pyridin-3-yl}piperidin-1-yl)methyl]-1-(1,3-oxazol-5-ylmethyl)-1H-benzimidazole-6-carboxylic acid, trifluoroacetate salt]
0.0089 µM	81%	0.19 µM	81%	O=C(O)c1ccc2nc(CN3CCC(c4cccnc4OCc4ccc(Cl)cc4F)CC3)n(Cc3ncco3)c2n1 [Example 7, 2-[(4-{2-[(4-chloro-2-fluorobenzyl)oxy]pyridin-3-yl}piperidin-1-yl)methyl]-3-(1,3-oxazol-2-ylmethyl)-3H-imidazo[4,5-b]pyridine-5-carboxylic acid, trifluoroacetate salt]
0.006 µM	72%	0.23 µM	76%	O=C(O)c1ccc2nc(CN3CCC(c4cccnc4OCc4ccc(Cl)cc4F)CC3)n(C[C@H]3CCOC3)c2c1 [Example 8, 2-[(4-{2-[(4-chloro-2-fluorobenzyl)oxy]pyridin-3-yl}piperidin-1-yl)methyl]-1-[(3R)-tetrahydrofuran-3-ylmethyl]-1H-benzimidazole-6-carboxylic acid, trifluoroacetate salt]
0.028 µM	77%	0.7 µM	81%	COCCn1c(CN2CCC(c3cccnc3OCc3ccc(C#N)cc3F)CC2)nc2ccc(C(=O)O)cc21 [Example 9, 2-[(4-{2-[(4-cyano-2-fluorobenzyl)oxy]pyridin-3-yl}piperidin-1-yl)methyl]-1-(2-methoxyethyl)-1H-benzimidazole-6-carboxylic acid, trifluoroacetate salt]
0.0019 µM	83%	0.049 µM	100%	Cn1cncc1Cn1c(CN2CCC(c3cccnc3OCc3ccc(Cl)cc3F)CC2)nc2ccc(C(=O)O)cc21 [Example 11, 2-[(4-{2-[(4-chloro-2-fluorobenzyl)oxy]pyridin-3-yl}piperidin-1-yl)methyl]-1-[(1-methyl-1H-imidazol-5-yl)methyl]-1H-benzimidazole-6-carboxylic acid, trifluoroacetate salt]
0.0047 µM	78%	0.11 µM	93%	O=C(O)c1ccc2nc(CN3CCC(c4cccnc4OCc4ccc(F)cc4F)CC3)n(C[C@@H]3CCO3)c2c1 [Example 12, ammonium 2-[(4-{2-[(2,4-difluorobenzyl)oxy]pyridin-3-yl}piperidin-1-yl)methyl]-1-[(2S)-oxetan-2-ylmethyl]-1H-benzimidazole-6-carboxylate]
0.006 µM	80%	0.27 µM	91%	N#Cc1ccc(COc2ncccc2C2CCN(Cc3nc4ccc(C(=O)O)cc4n3C[C@@H]3CCCO3)CC2)c(F)c1 [Example 13, 2-[(4-{2-[(4-cyano-2-fluorobenzyl)oxy]pyridin-3-yl}piperidin-1-yl)methyl]-1-[(2S)-tetrahydrofuran-2-ylmethyl]-1H-benzimidazole-6-carboxylic acid, trifluoroacetate salt]
0.014 µM	77%	0.54 µM	120%	O=C(O)c1ccc2nc(CN3CCC(c4cccnc4OCc4ccc(Cl)cc4F)CC3)n(CCN3CCOC3=O)c2c1 [Example 14, 2-[(4-{2-[(4-chloro-2-fluorobenzyl)oxy]pyridin-3-yl}piperidin-1-yl)methyl]-1-[2-(2-oxo-1,3-oxazolidin-3-yl)ethyl]-1H-benzimidazole-6-carboxylic acid, trifluoroacetate salt]
0.00096 µM	81%	0.021 µM	91%	CCn1cncc1Cn1c(CN2CCC(c3cccnc3OCc3ccc(Cl)cc3F)CC2)nc2ccc(C(=O)O)nc21 [Example 15, 2-[(4-{2-[(4-chloro-2-fluorobenzyl)oxy]pyridin-3-yl}piperidin-1-yl)methyl]-3-[(1-ethyl-1H-imidazol-5-yl)methyl]-3H-imidazo[4,5-b]pyridine-5-carboxylic acid, trifluoroacetate salt]
0.00099 µM	87%	0.018 µM	130%	CCn1cncc1Cn1c(CN2CCC(c3cccnc3OCc3ccc(C#N)cc3F)CC2)nc2ccc(C(=O)O)cc21 [Example 16, 2-[(4-{2-[(4-cyano-2-fluorobenzyl)oxy]pyridin-3-yl}piperidin-1-yl)methyl]-1-[(1-ethyl-1H-imidazol-5-yl)methyl]-1H-benzimidazole-6-carboxylic acid, trifluoroacetate salt]
